Measured values: patent publication US9834514B2, “Antibiotic sensitivity-restoring and photosensitive agents” (New Mexico Tech Research Foundation, priority 2015, dated 2017)
Converted amounts (≈) assume the structure as drawn. Read-outs that look alike come from different tables or passages of the source.

Assays:
P. aeruginosa [1] = experiment: Cell killing with compounds and PME at fixed concentrations, with and without white light; assay type: cell-based; conditions: 20 μM compound and 0.1 μg/mL PME
Description: FIG. 26 is an example of the treatment of P. aeruginosa with compound 1 and PME at fixed concentrations.
P. aeruginosa cells were also treated with white light upon being incubated with compound 1 for different durations of time. In a 12×75 mm borosilicate glass culture tube, 1 mL of cell suspension was added. PME was added to the cells, and the samples were mixed using a vortex mixer. The resulting samples were incubated for 1.5 hours at 37° C. on a rotary shaking incubator at 100 rpm. Compound 1 was then added, and the samples were incubated for 30 minutes at 37° C. on a rotary shaking incubator at 100 rpm. The samples were then irradiated with white light using a Lumacare™ LC-122 for 2 minutes (irradiation λ1) and incubated overnight at 37° C. The samples were irradiated again with white light using a Lumacare™ LC-122 for 2 minutes (irradiation λ2). Ten-fold dilutions were made of each sample, and 10 μL of each dilution was drip-streaked onto an agar plate. The samples were incubated overnight at 37° C., and colony counts were performed to calculate CFU/mL.
FIG. 55 is an illustrative example of the treatment of P. aeruginosa with compound 1, PME, co-treatment with compound 1 and PME, and co-treatment with compound 1, PME, and light (λ1 and λ2) at fixed concentrations.

[2] = MIC against MRSA isolates; assay type: cell-based, S. aureus; conditions: Staphylococcus aureus
How it was run: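 Broth microdilution in TSB, ~5×10^5 CFU/mL, two-fold dilutions from 100 μM, overnight at 37 °C shaking 100 rpm.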

S. aureus (ATCC 29213) = experiment: microbe, parasite or virus in culture; assay type: cell-based; conditions: for MIC: Staphylococcus aureus, ATCC29213, read-out: Final MIC Apr. 16, 2015
Description: Each mixture was incubated at 37° C. on a rotary shaking incubator for about 16 hours. MTT was then added to assess the viability of the cells (at 10% well volume). […] The cells were then streaked onto a TSA plate and incubated overnight at 37° C. These steps were repeated to reach a total of 30 exposures.

P. aeruginosa [3] = experiment: Resensitization to antibiotics (log reduction, TABLE 29); assay type: cell-based; conditions: compound 20 μM; PME (0.1 μg/mL)
[4] = tested on: MRSA isolates (S. aureus ATCC 33591, BAA-44, BAA-1707, BAA-1717, BAA-1720, BAA-1747, BAA-1754, BAA-1761, BAA-1763, BAA-1764, BAA-1766); experiment: Combination effects of compounds 7-11 and antibiotics on MRSA isolates (turbidity); assay type: cell-based
From the text: Inhibition resulting from co-treatment of a broth suspension with a compound of the invention and an antibiotic was compared to broth suspensions subjected to each individual treatment. A visual observation of inhibition with the unaided eye upon co-treatment of the broth suspensions, based on turbidity, was considered synergistic.
Exceptions to reading complete inhibition of growth included Gram-positive cocci. For Gram-positive cocci, trailing growth was observed. For these species, the MICs were read at the first spot where trailing was observed, and tiny buttons of growth were ignored. […]
Two-fold dilutions of the antibiotics were prepared in a liquid growth medium dispensed in test tubes. […] The antibiotic-containing tubes were inoculated with a standard bacterial suspension of 5×10^5 CFU/mL. Following an overnight incubation (16-20 hrs) at 35±2° C. under ambient air, the tubes were examined for visible bacterial growth based on turbidity. The lowest concentration of antibiotic that prevented growth was determined to be the MIC. An incubation time of 24 hrs was used to determine the MICs of oxacillin and vancomycin.

[5] = MRSA (ATCC BAA-44), TABLE 21, read-out: MRSA MIC
[6] = MRSA isolate ATCC 33591, read-out: MIC
[7] = MRSA isolate ATCC BAA-44, read-out: MIC
[8] = MRSA isolate ATCC BAA-1707, read-out: MIC
[9] = MRSA isolate ATCC BAA-1717, read-out: MIC
[10] = MRSA isolate ATCC BAA-1720, read-out: MIC
[11] = MRSA isolate ATCC BAA-1747, read-out: MIC
[12] = MRSA isolate ATCC BAA-1754, read-out: MIC
[13] = MRSA isolate ATCC BAA-1761, read-out: MIC
[14] = MRSA isolate ATCC BAA-1763, read-out: MIC
[15] = MRSA isolate ATCC BAA-1764, read-out: MIC
[16] = MRSA isolate ATCC BAA-1766, read-out: MIC

## Clc1ccc(/N=N/c2c[nH]c3ccccc23)cc1 [Compound 9]
P. aeruginosa [1]
  Co-treatment with PME: log reduction in the CFU/mL compared to PME alone: 2-log reduction
P. aeruginosa [1]; listed as compound 9
  Co-treatment with PME: log reduction in the CFU/mL compared to PME alone: ~2 log reduction
[2]; [5]
  MIC: 16 µM (≈ 4.09 µg/mL)
[2]; [6]
  MIC: 12.5 µM (≈ 3.2 µg/mL)
[2]; [7]
  MIC: 16 µM (≈ 4.09 µg/mL)
[2]; [8]
  MIC: 12.5 µM (≈ 3.2 µg/mL)
[2]; [9]
  MIC: 6.3 to 12.5 µM (≈ 1.61 to 3.2 µg/mL)
[2]; [10]
  MIC: 12.5 µM (≈ 3.2 µg/mL)
[2]; [11]
  MIC: 12.5 µM (≈ 3.2 µg/mL)
[2]; [12]
  MIC: 12.5 µM (≈ 3.2 µg/mL)
[2]; [13]
  MIC: 12.5 µM (≈ 3.2 µg/mL)
[2]; [14]
  MIC: 12.5 µM (≈ 3.2 µg/mL)
[2]; [15]
  MIC: 12.5 µM (≈ 3.2 µg/mL)
[2]; [16]
  MIC: 12.5 µM (≈ 3.2 µg/mL)
S. aureus (ATCC 29213)
  Resistance Evolved: No
  MIC: 8 µM (≈ 2.05 µg/mL)
P. aeruginosa [3]
  Log Reduction: 2
[4]; MRSA ATCC 33591
  combination effect with Gentamycin: No Synergy
  combination effect with Norfloxacin: No Synergy
  combination effect with Oxacillin: No Synergy
  combination effect with Tetracycline: No Synergy
  combination effect with Vancomycin: Susceptible
[4]; MRSA ATCC BAA-44
  combination effect with Norfloxacin: No Synergy
  combination effect with Oxacillin: No Synergy
  combination effect with Tetracycline: Susceptible
  combination effect with Vancomycin: Susceptible
[4]; MRSA ATCC BAA-1707
  combination effect with Gentamycin: Susceptible
  combination effect with Norfloxacin: Susceptible
  combination effect with Oxacillin: Susceptible
  combination effect with Tetracycline: No Synergy
  combination effect with Vancomycin: Susceptible
[4]; MRSA ATCC BAA-1717
  combination effect with Gentamycin: Susceptible
  combination effect with Norfloxacin: Susceptible
  combination effect with Oxacillin: Synergy
  combination effect with Tetracycline: Susceptible
  combination effect with Vancomycin: Susceptible
[4]; MRSA ATCC BAA-1720
  combination effect with Gentamycin: Susceptible
  combination effect with Norfloxacin: No Synergy
  combination effect with Oxacillin: Synergy
  combination effect with Tetracycline: Susceptible
  combination effect with Vancomycin: Susceptible
[4]; MRSA ATCC BAA-1747
  combination effect with Gentamycin: Susceptible
  combination effect with Norfloxacin: Susceptible
  combination effect with Oxacillin: Susceptible
  combination effect with Tetracycline: Susceptible
  combination effect with Vancomycin: Susceptible
[4]; MRSA ATCC BAA-1754
  combination effect with Gentamycin: Susceptible
  combination effect with Norfloxacin: Susceptible
  combination effect with Oxacillin: No Synergy
  combination effect with Tetracycline: Susceptible
  combination effect with Vancomycin: Susceptible
[4]; MRSA ATCC BAA-1761
  combination effect with Gentamycin: Susceptible
  combination effect with Norfloxacin: No Synergy
  combination effect with Oxacillin: Susceptible
  combination effect with Tetracycline: Susceptible
  combination effect with Vancomycin: Susceptible
[4]; MRSA ATCC BAA-1763
  combination effect with Gentamycin: Susceptible
  combination effect with Norfloxacin: No Synergy
  combination effect with Oxacillin: Synergy
  combination effect with Tetracycline: Susceptible
  combination effect with Vancomycin: Susceptible
[4]; MRSA ATCC BAA-1764
  combination effect with Gentamycin: Susceptible
  combination effect with Norfloxacin: Susceptible
  combination effect with Oxacillin: Synergy
  combination effect with Tetracycline: Susceptible
  combination effect with Vancomycin: Susceptible
[4]; MRSA ATCC BAA-1766
  combination effect with Gentamycin: Susceptible
  combination effect with Norfloxacin: Susceptible
  combination effect with Oxacillin: Synergy
  combination effect with Tetracycline: Susceptible
  combination effect with Vancomycin: Susceptible

## Clc1ccc(Oc2c(-c3ccc(Cl)cc3)[nH]c3ccccc23)cc1 [Compound 10]
P. aeruginosa [1]
  Co-treatment with PME: log reduction in the CFU/mL compared to PME alone: 2-log reduction
P. aeruginosa [1]; listed as compound 10
  Co-treatment with PME: log reduction in the CFU/mL compared to PME alone: ~2 log reduction
[2]; [5]
  MIC: 16 µM (≈ 5.67 µg/mL)
[2]; [6]
  MIC: 12.5 µM (≈ 4.43 µg/mL)
[2]; [7]
  MIC: 8 µM (≈ 2.83 µg/mL)
[2]; [8]
  MIC: 12.5 µM (≈ 4.43 µg/mL)
[2]; [9]
  MIC: 6.3 µM (≈ 2.23 µg/mL)
[2]; [10]
  MIC: 6.3 µM (≈ 2.23 µg/mL)
[2]; [11]
  MIC: 12.5 to 25 µM (≈ 4.43 to 8.86 µg/mL)
[2]; [12]
  MIC: 50 µM (≈ 17.7 µg/mL)
[2]; [13]
  MIC: > 100 µM
[2]; [14]
  MIC: 50 to 100 µM (≈ 17.7 to 35.4 µg/mL)
[2]; [15]
  MIC: > 100 µM
[2]; [16]
  MIC: 25 to 50 µM (≈ 8.86 to 17.7 µg/mL)
S. aureus (ATCC 29213)
  Resistance Evolved: No
  MIC: 16 to 32 µM (≈ 5.67 to 11.3 µg/mL)
P. aeruginosa [3]
  Log Reduction: 2
[4]; MRSA ATCC 33591
  combination effect with Gentamycin: No Synergy
  combination effect with Norfloxacin: No Synergy
  combination effect with Oxacillin: No Synergy
  combination effect with Tetracycline: No Synergy
  combination effect with Vancomycin: Susceptible
[4]; MRSA ATCC BAA-44
  combination effect with Norfloxacin: No Synergy
  combination effect with Oxacillin: No Synergy
  combination effect with Tetracycline: Susceptible
  combination effect with Vancomycin: Susceptible
[4]; MRSA ATCC BAA-1707
  combination effect with Gentamycin: Susceptible
  combination effect with Norfloxacin: Susceptible
  combination effect with Oxacillin: Susceptible
  combination effect with Tetracycline: Synergy
  combination effect with Vancomycin: Susceptible
[4]; MRSA ATCC BAA-1717
  combination effect with Gentamycin: Susceptible
  combination effect with Norfloxacin: Susceptible
  combination effect with Oxacillin: Synergy
  combination effect with Tetracycline: Susceptible
  combination effect with Vancomycin: Susceptible
[4]; MRSA ATCC BAA-1720
  combination effect with Gentamycin: Susceptible
  combination effect with Norfloxacin: No Synergy
  combination effect with Oxacillin: No Synergy
  combination effect with Tetracycline: Susceptible
  combination effect with Vancomycin: Susceptible
[4]; MRSA ATCC BAA-1747
  combination effect with Gentamycin: Susceptible
  combination effect with Norfloxacin: Susceptible
  combination effect with Oxacillin: Susceptible
  combination effect with Tetracycline: Susceptible
  combination effect with Vancomycin: Susceptible
[4]; MRSA ATCC BAA-1754
  combination effect with Gentamycin: Susceptible
  combination effect with Norfloxacin: Susceptible
  combination effect with Oxacillin: No Synergy
  combination effect with Tetracycline: Susceptible
  combination effect with Vancomycin: Susceptible
[4]; MRSA ATCC BAA-1761
  combination effect with Gentamycin: Susceptible
  combination effect with Norfloxacin: No Synergy
  combination effect with Oxacillin: Susceptible
  combination effect with Tetracycline: Susceptible
  combination effect with Vancomycin: Susceptible
[4]; MRSA ATCC BAA-1763
  combination effect with Gentamycin: Susceptible
  combination effect with Norfloxacin: No Synergy
  combination effect with Oxacillin: No Synergy
  combination effect with Tetracycline: Susceptible
  combination effect with Vancomycin: Susceptible
[4]; MRSA ATCC BAA-1764
  combination effect with Gentamycin: Susceptible
  combination effect with Norfloxacin: Susceptible
  combination effect with Oxacillin: No Synergy
  combination effect with Tetracycline: Susceptible
  combination effect with Vancomycin: Susceptible
[4]; MRSA ATCC BAA-1766
  combination effect with Gentamycin: Susceptible
  combination effect with Norfloxacin: Susceptible
  combination effect with Oxacillin: No Synergy
  combination effect with Tetracycline: Susceptible
  combination effect with Vancomycin: Susceptible
